# Literature values as cited in article PMC7395068, “The evolution of strategies to minimise the risk of human drug-induced liver injury (DILI) in drug discovery and development” (Archives of Toxicology, 2020).
# Read-outs that look alike come from different tables or passages of the source.
# Assays:
# [1] = system: isolated mouse liver mitochondria; settings: cited from earlier work; for in vitro data EC2<=1x Cmax: In vitro Assay
# [2] = ref Chen 2016, cited from earlier work
# [3] = cited from earlier work
# [4] = system: THLE or HepG2 cells, isolated mitochondria, BSEP; settings: cited from earlier work
# human hepatocytes = settings: cited from earlier work
# [5] = system: primary human hepatocytes, NIH3T3 fibroblasts, BSEP, CYP3A4; settings: cited from earlier work
# [6] = isolated mouse liver mitochondria, EC20<=2uM, ref Porceddu 2012
# [7] = In vitro Assay, ref Schadt 2015
smiles,measurement,setting,value
Nc1c(Br)cc(Br)cc1CN[C@H]1CC[C@H](O)CC1 [Ambroxol],in vitro data EC2<=1x Cmax,[1]; ref Porceddu 2012,-VE
O=C(/C=C/c1ccc(O)c(O)c1)c1ccc(O)cc1O [Butein],in vitro data EC20<=2uM,[1]; [6],+VE
COc1cc(/C=C/C(=O)CC(=O)/C=C/c2ccc(O)c(OC)c2)ccc1O [Curcumin],in vitro data EC2<=1x Cmax,[1]; ref Porceddu 2012,-VE
CCOC(=O)c1ccc(O)cc1 [Ethyl paraben],in vitro data EC20<=2uM,[1],-VE
O=C(O)c1cc(O)c(O)c(O)c1 [Gallic acid],in vitro data EC2<=1x Cmax,[1]; ref Porceddu 2012,+VE
Oc1cc(O)cc(O)c1 [Phloroglucinol],in vitro data EC20<=2uM,[1]; [6],-VE
Oc1ccc(/C=C/c2cc(O)cc(O)c2)cc1 [Resveratrol],in vitro data EC2<=1x Cmax,[1]; ref Porceddu 2012,-VE
OC[C@H]1O[C@@](CO)(O[C@H]2O[C@H](CO)[C@@H](O)[C@H](O)[C@H]2O)[C@@H](O)[C@@H]1O [Sucrose],in vitro data EC20<=2uM,[1],-VE
Oc1ncnc2[nH]ncc12 [allopurinol],"DILI +VE (5-8), DILI -VE (-4)",[2],+VE
same,DILI severity category,[2],vMost-DILI-Concern
same,In vivo DILI,[3]; […],+VE
same,In vivo DILI,[3]; ref Aleo 2019,+VE
same,In vivo DILI,[3]; ref Xu 2008,+VE
same,Partition Hybrid HRM Score,"[4]; In vitro Assay, ref Aleo 2019",+VE
same,Ro2 Hybrid HRM Score,"[4]; In vitro Assay, ref Aleo 2019",-VE
same,Structural based (HCI),"human hepatocytes; In vitro Assay, ref Xu 2008",+VE
CC1(C)S[C@@H]2[C@H](NC(=O)[C@H](N)c3ccccc3)C(=O)N2[C@H]1C(=O)O [ampicillin],in vitro data EC2<=1x Cmax,[1]; ref Porceddu 2012,+VE
COc1cc2c(c(OC)c1OC)-c1ccc(OC)c(=O)cc1[C@@H](NC(C)=O)CC2 [colchicine],Partition Hybrid HRM Score,[4],-VE
same,Cellular toxicity (3T3 cells),[5],+VE
same,Combined Assay,[5],-VE
same,GSH adduct HML,[5],-VE
same,Hepatocyte cellular toxicity,[5],-VE
same,MitoTox 3T3,[5],-VE
same,TDI CYP3A4,[5],-VE
same,hBSEP inhibition,[5],-VE
same,Structural based (HCI),human hepatocytes,-VE
CC(=O)N(O)CCCCCNC(=O)CCC(=O)N(O)CCCCCNC(=O)CCC(=O)N(O)CCCCCN [deferoxamine],"DILI +VE (5-8), DILI -VE (-4)",[2],+VE
same,DILI severity category,[2],vLess-DILI-Concern
same,In vivo DILI,[3]; ref Aleo 2019,+VE
same,In vivo DILI,[3]; ref Xu 2008,+VE
same,Partition Hybrid HRM Score,"[4]; In vitro Assay, ref Aleo 2019",+VE
same,Ro2 Hybrid HRM Score,"[4]; In vitro Assay, ref Aleo 2019",+VE
same,Structural based (HCI),"human hepatocytes; In vitro Assay, ref Xu 2008",+VE
CN(C)[C@@H]1C(O)=C(C(N)=O)C(=O)[C@@]2(O)C(O)=C3C(=O)c4c(O)ccc(Cl)c4[C@@H](O)[C@H]3C[C@@H]12 [demeclocycline],"DILI +VE (5-8), DILI -VE (-4)",[2]; binary in vivo human DILI call,-VE
same,DILI severity category,"[2]; human DILI, LTKB DILIrank category",Ambiguous DILI-concern
same,In vivo DILI,[3]; ref Xu 2008,+VE
same,Structural based (HCI),"human hepatocytes; In vitro Assay, ref Xu 2008",-VE
C[C@H]1O[C@@H](O[C@H]2[C@@H](O)C[C@H](O[C@H]3[C@@H](O)C[C@H](O[C@H]4CC[C@@]5(C)[C@H](CC[C@@H]6[C@@H]5C[C@@H](O)[C@]5(C)[C@@H](C7=CC(=O)OC7)CC[C@]65O)C4)O[C@@H]3C)O[C@@H]2C)C[C@H](O)[C@@H]1O [digoxin],Ro2 Hybrid HRM Score,"[4]; In vitro Assay, ref Aleo 2019",-VE
same,Partition Hybrid HRM Score,[4],-VE
same,Cellular toxicity (3T3 cells),[5]; [7],-VE
same,Combined Assay,[5]; [7],-VE
same,GSH adduct HML,[5]; [7],-VE
same,Hepatocyte cellular toxicity,[5]; [7],-VE
same,MitoTox 3T3,[5]; [7],-VE
same,TDI CYP3A4,[5]; [7],-VE
same,hBSEP inhibition,[5]; [7],-VE
same,Structural based (HCI),"human hepatocytes; In vitro Assay, ref Xu 2008",-VE
Cc1c(N(C)CS(=O)(=O)[O-])c(=O)n(-c2ccccc2)n1C.[Na+] [dipyrone],in vitro data EC20<=2uM,[1],+VE
C=C1CC[C@H](O)C/C1=C/C=C1\CCC[C@]2(C)[C@@H]([C@H](C)/C=C/[C@H](C)C(C)C)CC[C@@H]12 [ergocalciferol],"DILI +VE (5-8), DILI -VE (-4)",[2],-VE
same,DILI severity category,[2],vNo-DILI-Concern
same,In vivo DILI,[3]; ref Aleo 2019,-VE
same,In vivo DILI,[3]; ref Xu 2008,-VE
same,Partition Hybrid HRM Score,"[4]; In vitro Assay, ref Aleo 2019",-VE
same,Ro2 Hybrid HRM Score,"[4]; In vitro Assay, ref Aleo 2019",-VE
same,Structural based (HCI),"human hepatocytes; In vitro Assay, ref Xu 2008",-VE
COc1cc([C@@H]2c3cc4c(cc3[C@@H](O[C@@H]3O[C@@H]5CO[C@@H](C)O[C@H]5[C@H](O)[C@H]3O)[C@H]3COC(=O)[C@H]23)OCO4)cc(OC)c1O [etoposide],"DILI +VE (5-8), DILI -VE (-4)",[2],+VE
same,DILI severity category,[2],vLess-DILI-Concern
same,In vivo DILI,[3]; […],+VE
same,In vivo DILI,[3]; ref O'Brien 2006,+VE
same,In vivo DILI,[3]; ref Persson 2013,+VE
same,In vivo DILI,[3]; ref Tolosa 2012,+VE
same,In vivo DILI,[3]; ref Xu 2008,+VE
same,Structural based (HCI),"human hepatocytes; In vitro Assay, ref Xu 2008",-VE
CC(=O)OCC(=O)[C@@]1(O)CC[C@H]2[C@@H]3CCC4=CC(=O)CC[C@]4(C)[C@@]3(F)[C@@H](O)C[C@@]21C [fludrocortisone acetate],In vivo DILI,[3]; ref Aleo 2019,-VE
same,In vivo DILI,[3]; ref Xu 2008,-VE
same,Partition Hybrid HRM Score,"[4]; In vitro Assay, ref Aleo 2019",-VE
same,Ro2 Hybrid HRM Score,"[4]; In vitro Assay, ref Aleo 2019",-VE
same,Structural based (HCI),"human hepatocytes; In vitro Assay, ref Xu 2008",-VE
